According to patent US6903083B2, “Stabilized hydroxyvitamin D” (Bone Care International, Inc., priority 2000, dated 2005):
One block for each compound: values may come before it.

How the values were obtained:
Format in all cases: physicochemical
[1] = Storage stability testing of stabilized 24-hydroxyvitamin D2, long-term storage at −70° C., HPLC and UV (Example 11); settings: present-tense example
Protocol: (§1) The stability of samples from four lots of stabilized 24-Hydroxyvitamin D2 is examined at 6-month intervals during long-term storage at −70° C. All lots are stored in the container-closure system selected as packaging for the drug substance. Stability is assessed by examining samples for changes in (1) weight percent 24-OH-D2 content, (2) percent related substances content, and (3) impurity profile, using HPLC. In addition, all lots are examined for changes in UV spectrum by UV spectrophotometry.

[2] = Stability testing SHVD2 v. non-SHVD2, oven at about 60° C., HPLC (Example 6); settings: 0 to 48 hours, solid in test tube, present-tense example
Protocol: Approximately 1 mg of SHVD2 or non-stabilized 1α-hydroxyvitamin D2 (non-SHVD2) is placed in each of 9 (12×75 mm) test tubes. The test tubes are placed in an oven at about 60° C. One test tube of each of the two vitamin D2 preparations is removed at 0, 3, 6, 9, 12, 18, 24, 36 and 48 hours of incubation. The contents in each test tube are dissolved in ethanol to produce a 1 mg/mL solution. Each solution (10 μL) is analyzed by the following HPCL conditions: a YMC Pack C8 column (4.6×250 mm, 5 μm) with a mobile phase of acetonitrile: methanol: water (60:20:20) at a flow rate of 1.0 mL/min.

[3] = Stability testing SHVD2 v. non-SHVD2 (ethanol vapour exposed), 60° C. for 48 hours, HPLC (Example 8); settings: non-SHVD2 made by exposure to ethanol vapors
Protocol: Approximately 1 mg of stabilized 1α-hydroxyvitamin D2 (doxercalciferol) (SHVD2) was placed in each of two test tubes (12×75 mm). One sample was placed in a dessicator containing an atmosphere of ethanol vapors to increase the residual solvent content of the material to form non-stabilized doxercalciferol (non-SHVD2). The material in the dessicator was heated at 60° C. for 48 hours. The other sample was not subjected to the ethanol atmosphere, thereby retaining its stabilized form, but was heated at 60° C. for 48 hours. The contents in each test tube were dissolved in ethanol to produce a 1 mg/mL solution. Each solution (10 μL) was analyzed by the following HPLC conditions: a YMC Pack C8 column (4.6×250 mm, 5 μm) with a mobile phase of acetonitrile: methanol: water (60:20:20) at a flow rate of 1.0 mL/min.

[4] = Stability testing SHVD2 v. commercially available 1α-OH-D2, oven at about 60° C., HPLC (Example 7); settings: solid in test tube, present-tense example
Protocol: Approximately 1 mg of SHVD2 or commercial 1α-hydroxyvitamin D2 is placed in each of 2 (12×75 mm) test tubes. One test tube from each of the two preparations is placed in an oven at about 60° C. For analysis, the contents in each test tube are dissolved in ethanol to produce a 1 mg/mL solution. Each solution (10 μL) is analyzed by the following HPLC conditions: a YMC Pack C8 column (4.6×250 mm, 5 μm) with a mobile phase of acetonitrile: methanol: water (60:20:20) at a flow rate of 1.0 mL/min.

[5] = Stability testing of 1α,24(S)-dihydroxyvitamin D2 containing >0.5% residual solvents, 60° C. for 48 hours, HPLC (Example 9); settings: capped vial
Protocol: Approximately 1 mg of 1α,24(S)-dihydroxyvitamin D2 containing >0.5% residual solvents (non-SHVD) was placed in a capped vial and heated at 60° C. for 48 hours. The contents of the vial were dissolved in ethanol to produce a 1 mg/mL solution. The solution (10 μL) was analyzed by the following HPLC conditions: a YMC Pack Pro C18 column (4.6×150 mm, 5 μm) with a mobile phase of acetonitrile: water (50:50) at a flow rate of 1.0 mL/min.

[6] = Storage stability testing of SHVD2, long-term storage at −70° C., HPLC and UV
Protocol: as §1, with “SHVD2 was” for “stabilized 24-Hydroxyvitamin D2 is”, “were” for “are”, “was” for “is”, “1α-OH-D2” for “24-OH-D2”

impurity profile chromatography, new peaks relative to baseline ([1]; 6 or 12 months): no new peaks | weight % 24-OH-D2 content ([1]; all four lots, all time points): > 98.0% | percent related substances ([1]; baseline to 12 months): < 2.0% | differences in mean weight % 24-OH-D2 content between baseline and 6 or 12 months [1]: No significant differences
Compound: C=C1CC[C@H](O)C/C1=C/C=C1\CCC[C@]2(C)[C@@H]([C@H](C)/C=C/C(C)(O)C(C)C)CC[C@@H]12 (stereo partly drawn) [stabilized 24-Hydroxyvitamin D2, 24-hydroxyvitamin D2]

Compound: C=C1/C(=C\C=C2/CCC[C@]3(C)[C@@H]([C@H](C)/C=C/[C@H](C)C(C)C)CC[C@@H]23)C[C@@H](O)C[C@@H]1O [non-SHVD2, 1α-hydroxyvitamin D2]
rate of appearance of the peak with relative retention time of approximately 0.9 compared with the 1α-hydroxyvitamin D2 peak [2]: greater with the non-SHVD2 than with SHVD2 | rate of appearance of the peak with relative retention time of approximately 0.9 compared with the doxercalciferol peak [3]: greater with the non-SHVD2 material than with SHVD2

Compound: C=C1/C(=C\C=C2/CCC[C@]3(C)[C@@H]([C@H](C)/C=C/[C@H](C)C(C)C)CC[C@@H]23)C[C@@H](O)C[C@@H]1O [commercial 1α-hydroxyvitamin D2, 1α-hydroxyvitamin D2]
rate of appearance of the peak with relative retention time of approximately 0.9 compared with the 1α-hydroxyvitamin D2 peak [4]: greater with the commercial 1α-hydroxyvitamin D2 than with SHVD2

Compound: C=C1/C(=C\C=C2/CCC[C@]3(C)[C@@H]([C@H](C)/C=C/[C@@](C)(O)C(C)C)CC[C@@H]23)C[C@@H](O)C[C@@H]1O [1α,24(S)-dihydroxyvitamin D2]
appearance of a new compound by HPLC after heating [5]: a compound with a relative retention time of approximately 0.85 compared with standard 1α,24(S)-dihydroxyvitamin D2 was observed

impurity profile chromatography, new peaks relative to baseline ([6]; 6 or 12 months): no new peaks | weight % 1α-OH-D2 content ([6]; all four lots, all time points (baseline, 6, 12 months), HPLC): > 98.0% | percent related substances ([6]; baseline to 12 months, HPLC): < 2.0% | differences in mean weight % 1α-OH-D2 content between baseline and 6 or 12 months ([6]; four lots): no significant differences
Compound: C=C1/C(=C\C=C2/CCC[C@]3(C)[C@@H]([C@H](C)/C=C/[C@H](C)C(C)C)CC[C@@H]23)C[C@@H](O)C[C@@H]1O [SHVD2, 1α-hydroxyvitamin D2]
